In this assay the target is T1, Angiotensin II Receptor (Bos taurus, UniProt P25104).
T1 construct: The brownish tissue forming the adrenal cortex is scraped off and finely minced with scissors before homogenization; from tissue; host or cells: beef adrenal cortex, microsomal membranes (100,000×g pellet)
T1 sequence (P25104 1-359): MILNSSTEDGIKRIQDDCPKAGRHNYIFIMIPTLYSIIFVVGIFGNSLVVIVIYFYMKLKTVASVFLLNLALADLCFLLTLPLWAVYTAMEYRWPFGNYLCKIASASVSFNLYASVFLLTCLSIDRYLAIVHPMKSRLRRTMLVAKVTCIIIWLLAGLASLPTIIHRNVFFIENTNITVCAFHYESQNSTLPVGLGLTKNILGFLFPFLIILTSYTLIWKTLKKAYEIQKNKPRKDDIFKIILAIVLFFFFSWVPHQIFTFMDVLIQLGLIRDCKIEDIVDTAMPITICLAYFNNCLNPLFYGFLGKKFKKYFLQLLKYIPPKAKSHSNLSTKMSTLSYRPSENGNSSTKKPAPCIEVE
As to the kind of experiment: Angiotensin II Receptor Binding: displacement of [^125 I](Sar^1,Ile^8)AngII from beef adrenal cortex membranes. Also on record: species or system beef (bovine). The following applies: [^125 I](Sar^1,Ile^8)AngII, beef adrenal membranes, 60 min, room temperature. The source says:
Beef adrenals are obtained from a local slaughter house (Maxwell-Cohen). [^125 I](Sar^1,Ile^8)AngII, S.A. 2200 Ci/mmole, is purchased from Dupont (NEN®, Boston, Mass.). All unlabeled AngII analogs, Dimethylsulfoxide (DMSO), nucleotides, bovine serum albumin (BSA) are purchased from Sigma Chemical Co., St. Louis, Mo. U.S.A.
Approximately sixteen (16) to twenty (20) beef adrenal glands are processed as follows: fresh adrenal glands received on crushed ice are cleaned of fatty tissues and the tough membranes encapsulating the glands are removed and discarded. The brownish tissue forming the adrenal cortex is scraped off and finely minced with scissors before homogenization. Care is taken to avoid contamination with medullary tissue during dissection. The scraped cortices are suspended in twenty volumes of an ice-cold buffer medium consisting of 10 mM Tris.HCl (pH 7.4 at 22° C.) and containing 1.0 mM EDTA and 0.2M sucrose. Unless otherwise indicated, all subsequent operations are done at 4° C. […] The homogenate is centrifuged first at low speed (3,000×g) for 10 min. […] This P2 pellet is discarded and the liquid phase is carefully decanted off in clean centrifuge tubes and recentrifuged at high speed (100,000×g) for 60 min. The translucent final pellet is harvested and combined in a small volume (20-50.0 ml) of 50.0 mM Tris.HCl buffer, pH 7.2. […] The pelleted membrane is reconstituted in 50.0 mM Tris.HCl buffer containing 0.1 mM of phenylmethylsulfonyl fluoride (PMSF) to give approximately a protein concentration of 2.5 mg per ml of tissue suspension. The membrane preparation is finally aliquoted in 1.0 ml volumes and stored at -70° C. until use in the binding assays. […]
The wells are left undisturbed for 60 min. at room temperature. […] The filters are removed from the filter grid and counted in a Parkard® Cobra Gamma Counter for 1 min. […] The binding data are analyzed by the non-linear interactive "LUNDON-1" program (LUNDON SOFTWARE Inc., Cleveland, Ohio U.S.A.).

As usually defined, the IC50 is the point on the concentration scale where inhibition reaches its midpoint.

Structures are written as SMILES.

With `CCCCc1nc2ccc(C3=NN[C@H]4C(=O)N(C)C(=O)[C@@H]34)cc2c(=O)n1Cc1ccc(-c2ccccc2-c2nnn[nH]2)cc1` (relative stereo) [Example 7], the IC50 came to 0.18 µM.
Turning to `CCCCc1nc2ccc([C@@]3(C)NN[C@@H]4C(=O)N(C)C(=O)[C@@H]43)cc2c(=O)n1Cc1ccc(-c2ccccc2-c2nnn[nH]2)cc1` (relative stereo) [Example 10, (3-alpha,3aalpha,6aalpha)-3-[2-butyl-3,4-dihydro-4-oxo-3-[[2'-(1H-tetrazol-5-yl)-[1,1'-biphenyl]-4-yl]methyl]-6-quinazolinyl]-2,3,3a,6a-tetrahydro-3,5-dimethyl-pyrrolo[3,4-c]pyrazole-4,6(1H,5H)-dione], the IC50 is 0.88 µM.

Source of the values: patent US5281603A, “Angiotensin II receptor blocking 2,3,6 substituted quinazolinones” (American Cyanamid Company, priority 1993, dated 1994).
